Test results: ChEMBL document CHEMBL3751742, “A one pot, two-step synthesis of 5-arylpyrrolo[2,3-d]pyrimidines and screening of their preliminary antibacterial properties” (2016)
Calls of active or inactive are those of the source. No cut-off for these calls is given here.

Assays:
Assay type in all cases: functional
Conditions in all cases: for zone of inhibition at 5000 µg/mL: read-out: DIZ
Bacillus subtilis = assay: Antibacterial activity against gram-positive Bacillus subtilis at 5 mg/ml after 24 hrs by well diffusion method
Bacillus mycoides = assay: Antibacterial activity against gram-positive Bacillus mycoides at 5 mg/ml after 24 hrs by well diffusion method
Escherichia coli = assay: Antibacterial activity against gram-negative Escherichia coli at 5 mg/ml after 24 hrs by well diffusion method
Pseudomonas aeruginosa = assay: Antibacterial activity against gram-negative Pseudomonas aeruginosa at 5 mg/ml after 24 hrs by well diffusion method

Compound | zone of inhibition at 5000 µg/mL (Bacillus subtilis) [mm] | zone of inhibition at 5000 µg/mL (Bacillus mycoides) [mm] | zone of inhibition at 5000 µg/mL (Escherichia coli) [mm] | zone of inhibition at 5000 µg/mL (Pseudomonas aeruginosa) [mm] | diameter of the inhibition zone (DIZ) (Bacillus subtilis) | diameter of the inhibition zone (DIZ) (Bacillus mycoides) | diameter of the inhibition zone (DIZ) (Escherichia coli) | diameter of the inhibition zone (DIZ) (Pseudomonas aeruginosa)
Cn1c(=O)c2c(-c3cccs3)c[nH]c2n(C)c1=O | 20 | 13 | 13 | 20 |  |  |  | 
CN(C)c1ccc(-c2c[nH]c3c2c(=O)n(C)c(=O)n3C)cc1 | 15 | 12 | 11 | 20 |  |  |  | 
Cn1c(=O)c2c(-c3ccc(O)cc3)c[nH]c2n(C)c1=O |  |  |  |  | inactive | inactive | inactive | inactive
Cn1c(=O)c2c(-c3c[nH]c4ccccc34)c[nH]c2n(C)c1=O | 20 |  | 12 | 20 |  | inactive |  | 
Cn1c(=O)c2c(-c3ccc(Cl)cc3)c[nH]c2n(C)c1=O |  |  |  |  | inactive | inactive | inactive | inactive
COc1ccc(-c2c[nH]c3c2c(=O)n(C)c(=O)n3C)cc1 |  |  |  |  | inactive | inactive | inactive | inactive
Cc1ccc(-c2c[nH]c3c2c(=O)n(C)c(=O)n3C)cc1 | 20 | 12 | 15 | 20 |  |  |  | 
Cn1c(=O)c2c(-c3ccccc3)c[nH]c2n(C)c1=O |  |  |  |  | inactive | inactive | inactive | inactive
Cn1c(=O)c2c(-c3ccco3)c[nH]c2n(C)c1=O | 20 |  | 12 | 18 |  | inactive |  | 
Cn1c(=O)c2c(-c3cccc4ccccc34)c[nH]c2n(C)c1=O | 18 | 17 | 14 | 20 |  |  |  | 
